# Reference: patent US8940516B2, “Method for the synthesis of chiral cyanohydrins via a hydroxynitrile lyase from brassicaceae” (Evocatal GmbH, priority 2006, dated 2015)
# Molecular target: T1, AtHNL (Arabidopsis thaliana, UniProt Q9LFT6)
# T1 construct: made in house; host or cells: E. coli BL21(DE3), plasmid pAtHNL (pET28a, NcoI/XhoI)
# T1 sequence (Q9LFT6 1-258): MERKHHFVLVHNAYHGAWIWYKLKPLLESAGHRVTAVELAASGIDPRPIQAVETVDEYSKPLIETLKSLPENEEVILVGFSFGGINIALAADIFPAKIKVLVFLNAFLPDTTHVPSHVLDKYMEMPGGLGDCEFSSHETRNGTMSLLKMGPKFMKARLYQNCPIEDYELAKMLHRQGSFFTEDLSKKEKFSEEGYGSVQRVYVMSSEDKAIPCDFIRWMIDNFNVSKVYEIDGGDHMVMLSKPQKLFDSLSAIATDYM
# Test: Cleavage of mandelonitrile, determination of liberated benzaldehyde (cell test)
# Type: biochemical
# Conditions: cleavage reaction of cyanohydrin by AtHNL, citrate-phosphate buffer pH 5
# Protocol: Ia) Cleavage of Mandelonitrile(=Benzaldehyde Cyanohydrin), Determination of Liberated Benzaldehyde (Cell Test):
# The protocol employed was based on the test described by Bauer et al in 1999 and was only modified slightly. 700 μl of citrate-phosphate buffer, pH 5 (48.5 mL 0.1M citric acid, 51.5 mL 0.2 M dipotassium hydrogen phosphate, qsp 100 ml water) was mixed with 100 μl of enzyme sample in a quartz glass cell and the reaction was started with 200 μl of mandelonitrile solution (60 mM in citrate-phosphate buffer, pH 3.5 (1.82 mL 0.1 M citric acid, 1.06 mL 0.1 M disodium hydrogen phosphate, qsp 100 mL water). The increase in the extinction at 280 nm was monitored for 2 min. It was proportional to the benzaldehyde concentration in the sample. Self-degradation of the cyanohydrin was determined in a control sample without enzyme and subtracted from the values measured for the enzyme sample. In order to determine the remaining activity in the course of the stability tests described in Example 5d, a slightly altered procedure was used: 870 μl of citrate buffer (50 mM, pH 4) was supplemented with 30 μl of enzyme sample, the reaction was started by adding 100 μl of mandelonitrile (60 mM in 50 mM of citrate buffer, pH 2) and monitored for 2 minutes at 280 nm. […] The enzyme activity is, however, much lower with this procedure.
structure (smiles),measurement,value
N#CC(O)c1ccccc1 (stereo not shown) [Benzaldehyde cyanohydrin],"Specify activity (U/mg), Benzaldehyde Test (see Ia above)",12.5 U/mg
